Data as given in PubChem BioAssay AID328 (DTP/NCI, 2004).
Inconclusive results and toxic doses are left out.

Test system: BDF1 mice, P388 leukemia ip, median survival T/C
Assay: NCI In Vivo Anticancer Drug Screen. Data for tumor model P388 Leukemia (intraperitoneal) in B6D2F1 (BDF1) mice
Settings: endpoint: median survival time, higher = longer survival
Procedure, shortened: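 Read-out is survival of treated animals expressed relative to the vehicle group, as a T/C ratio.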

[1] = dose: 0.5 mg/kg/injection, schedule: Q01DX009 (ip), vehicle: Klucel (hydroxypropylcellulose) (HPC)
[2] = dose: 1.0 mg/kg/injection, schedule: Q01DX009 (ip), vehicle: Klucel (hydroxypropylcellulose) (HPC)
[3] = dose: 1.0 mg/kg/injection, schedule: Q01DX009 (ip), vehicle: saline
[4] = dose: 2.0 mg/kg/injection, schedule: Q01DX009 (ip), vehicle: Klucel (hydroxypropylcellulose) (HPC)
[5] = dose: 2.0 mg/kg/injection, schedule: Q01DX009 (ip), vehicle: saline
[6] = dose: 4.0 mg/kg/injection, schedule: Q01DX009 (ip), vehicle: Klucel (hydroxypropylcellulose) (HPC)
[7] = dose: 50.0 mg/kg/injection, schedule: Q01DX009 (ip), vehicle: saline with Tween-80
[8] = dose: 100.0 mg/kg/injection, schedule: Q01DX009 (ip), vehicle: saline with Tween-80
[9] = dose: 200.0 mg/kg/injection, schedule: Q01DX009 (ip), vehicle: saline with Tween-80
[10] = dose: 12.5 mg/kg/injection, schedule: Q01DX009 (ip), vehicle: saline with Tween-80
[11] = dose: 25.0 mg/kg/injection, schedule: Q01DX009 (ip), vehicle: saline with Tween-80
[12] = dose: 100.0 mg/kg/injection, schedule: Q01DX001 (ip), vehicle: saline with Tween-80
[13] = dose: 200.0 mg/kg/injection, schedule: Q01DX001 (ip), vehicle: saline with Tween-80
[14] = dose: 400.0 mg/kg/injection, schedule: Q01DX001 (ip), vehicle: saline with Tween-80
[15] = dose: 50.0 mg/kg/injection, schedule: Q04DX003 (ip), vehicle: Klucel (hydroxypropylcellulose) (HPC)
[16] = dose: 100.0 mg/kg/injection, schedule: Q04DX003 (ip), vehicle: Klucel (hydroxypropylcellulose) (HPC)
[17] = dose: 200.0 mg/kg/injection, schedule: Q04DX003 (ip), vehicle: Klucel (hydroxypropylcellulose) (HPC)
[18] = dose: 400.0 mg/kg/injection, schedule: Q04DX003 (ip), vehicle: Klucel (hydroxypropylcellulose) (HPC)
[19] = dose: 200.0 mg/kg/injection, schedule: Q04DX003 (ip), vehicle: saline with Tween-80
[20] = dose: 400.0 mg/kg/injection, schedule: Q04DX003 (ip), vehicle: saline with Tween-80

`COc1cc([C@@H]2c3cc4c(cc3C[C@H]3COC(=O)[C@@H]32)OCO4)cc(OC)c1OC` was tested, and the T/C (dose: 1.25 mg/kg/injection, schedule: Q01DX010 (ip), vehicle: saline) was 109 % of control, the T/C (dose: 2.5 mg/kg/injection, schedule: Q01DX001 (ip), vehicle: other) was 105 % of control and the T/C (dose: 2.5 mg/kg/injection, schedule: Q01DX010 (ip), vehicle: saline) was 118 % of control. The T/C (dose: 5.0 mg/kg/injection, schedule: Q01DX001 (ip), vehicle: other) was 115 % of control, the T/C (dose: 10.0 mg/kg/injection, schedule: Q01DX010 (ip), vehicle: other) was 154 % of control and the T/C (dose: 20.0 mg/kg/injection, schedule: Q01DX010 (ip), vehicle: other) was 95 % of control.

With `CCC1(Br)OC1=O` (configuration not stated) the T/C (dose: 150.0 mg/kg/injection, schedule: Q01DX009 (ip), vehicle: saline) was 115 % of control and the T/C (dose: 335.0 mg/kg/injection, schedule: Q01DX009 (ip), vehicle: saline) was 115 % of control.

`COC1=C(N2CC2)C(=O)C(OC)=C(N2CC2)C1=O` was tested, and the T/C [1] was 217 % of control, the T/C (dose: 0.5 mg/kg/injection, schedule: Q01DX009 (ip), vehicle: saline) was 162 % of control and the T/C (dose: 0.8 mg/kg/injection, schedule: Q04DX003 (ip), vehicle: saline with Tween-80) was 170 % of control. The T/C [2] was 234 % of control, the T/C (dose: 1.0 mg/kg/injection, schedule: Q01DX009 (ip), vehicle: saline with Tween-80) was 179 % of control and the T/C [3] was 201 % of control. The T/C (dose: 1.8 mg/kg/injection, schedule: Q04DX003 (ip), vehicle: saline with Tween-80) was 154 % of control, the T/C [4] was 285 % of control and the T/C (dose: 2.0 mg/kg/injection, schedule: Q01DX009 (ip), vehicle: saline with Tween-80) was 91 % of control. The T/C [5] was 252 % of control, the T/C (dose: 2.6 mg/kg/injection, schedule: Q04DX003 (ip), vehicle: saline with Tween-80) was 173 % of control and the T/C [6] was 326 % of control. The T/C (dose: 4.0 mg/kg/injection, schedule: Q01DX009 (ip), vehicle: saline) was 92 % of control, the T/C (dose: 4.0 mg/kg/injection, schedule: Q04DX003 (ip), vehicle: saline with Tween-80) was 165 % of control and the T/C (dose: 6.0 mg/kg/injection, schedule: Q04DX003 (ip), vehicle: saline with Tween-80) was 200 % of control.

With `O=C1CCCCC1N1CCCCC1` (configuration not stated) the T/C (dose: 50.0 mg/kg/injection, schedule: Q01DX005 (ip), vehicle: saline with Tween-80) was 98 % of control and the T/C (dose: 100.0 mg/kg/injection, schedule: Q01DX005 (ip), vehicle: saline with Tween-80) was 105 % of control.

In the case of `Cn1c([N+](=O)[O-])cnc1/C=N/N1CCN(/N=C/c2ncc([N+](=O)[O-])n2C)CC1`, the T/C [7] is reported as 101 % of control, the T/C [8] is reported as 113 % of control and the T/C [9] is reported as 94 % of control.

For `NNc1nc2c(N)ncnc2n1C1OC(CO)C(O)C1O` (configuration not stated), the T/C (dose: 50.0 mg/kg/injection, schedule: Q04DX003 (ip), vehicle: saline) was 108 % of control, the T/C (dose: 100.0 mg/kg/injection, schedule: Q04DX003 (ip), vehicle: saline) was 115 % of control and the T/C (dose: 200.0 mg/kg/injection, schedule: Q04DX003 (ip), vehicle: saline) was 101 % of control. The T/C (dose: 400.0 mg/kg/injection, schedule: Q04DX003 (ip), vehicle: saline) was 116 % of control.

In the case of `CCCC(C(=O)OCCN(CC)CC)(c1ccccc1)c1ccccc1`, the T/C (dose: 54.0 mg/kg/injection, schedule: Q01DX001 (ip), vehicle: saline) is reported as 105 % of control, the T/C (dose: 90.0 mg/kg/injection, schedule: Q01DX001 (ip), vehicle: saline) is reported as 104 % of control and the T/C (dose: 150.0 mg/kg/injection, schedule: Q01DX001 (ip), vehicle: saline) is reported as 105 % of control.

For `CCn1c2ccccc2c2cc(NC(=O)N(CCCl)N=O)ccc21`, the T/C (dose: 100.0 mg/kg/injection, schedule: Q01DX009 (ip), vehicle: saline sonified) was 170 % of control, the T/C (dose: 200.0 mg/kg/injection, schedule: Q01DX009 (ip), vehicle: saline sonified) was 150 % of control and the T/C (dose: 400.0 mg/kg/injection, schedule: Q01DX009 (ip), vehicle: saline sonified) was 185 % of control.

With `COc1ccc([C@@H]2c3cc4c(cc3C[C@H]3COC(=O)[C@@H]32)OCO4)cc1OC` the T/C (dose: 6.25 mg/kg/injection, schedule: Q01DX009 (ip), vehicle: saline with Tween-80) was 104 % of control, the T/C [10] was 116 % of control and the T/C [11] was 121 % of control.

For `C/C(=C\COc1ccc2ccc(=O)oc2c1)C1=CC(=O)C(C)(C)O1`, the T/C (dose: 25.0 mg/kg/injection, schedule: Q01DX009 (ip), vehicle: Klucel (hydroxypropylcellulose) (HPC)) was 93 % of control, the T/C (dose: 50.0 mg/kg/injection, schedule: Q01DX009 (ip), vehicle: Klucel (hydroxypropylcellulose) (HPC)) was 94 % of control and the T/C [12] was 100 % of control. The T/C (dose: 100.0 mg/kg/injection, schedule: Q01DX009 (ip), vehicle: Klucel (hydroxypropylcellulose) (HPC)) was 87 % of control, the T/C [8] was 115 % of control and the T/C [13] was 103 % of control. The T/C (dose: 200.0 mg/kg/injection, schedule: Q01DX009 (ip), vehicle: Klucel (hydroxypropylcellulose) (HPC)) was 95 % of control and the T/C [14] was 100 % of control.

`O=C(O)/C(=C\c1ccncc1)c1cccc2ccccc12` was tested, and the T/C [15] was 100 % of control, the T/C [16] was 100 % of control and the T/C [17] was 100 % of control.

With `CC(C)OC(=O)Oc1cccc2c1C(=O)c1ccccc1C2=O` the T/C [16] was 104 % of control, the T/C [17] was 108 % of control and the T/C [18] was 104 % of control.

With `S=c1c2[nH]cnc2ncn1CCSC1=NC=NC2=NC=NC21` (configuration not stated) the T/C (dose: 100.0 mg/kg/injection, schedule: Q04DX003 (ip), vehicle: saline with Tween-80) was 100 % of control, the T/C [19] was 95 % of control and the T/C [20] was 109 % of control.

For `NC(=O)C1CCCC12NC(=O)NC2=O` (configuration not stated), the T/C [16] was 109 % of control, the T/C [17] was 100 % of control and the T/C [18] was 95 % of control.

`Nc1ccc2nc3ccccc3c(NCCCCCCCCNc3c4ccccc4nc4ccc(N)cc34)c2c1` was tested, and the T/C (dose: 2.5 mg/kg/injection, schedule: Q01DX009 (ip), vehicle: water) was 154 % of control and the T/C (dose: 10.0 mg/kg/injection, schedule: Q01DX009 (ip), vehicle: water) was 165 % of control.

For `Cc1cc(Br)c2ccccc2c1N(CC(=O)O)S(=O)(=O)c1ccccc1`, the T/C [12] was 100 % of control, the T/C [13] was 109 % of control and the T/C [14] was 109 % of control.

With `Cc1ccc(C)c(C(=O)CCC(=O)O)c1` the T/C [10] was 108 % of control, the T/C [11] was 110 % of control and the T/C [8] was 91 % of control. The T/C [9] was 99 % of control, the T/C [19] was 91 % of control and the T/C [20] was 100 % of control.

For `CCCCOCCOc1ccc(C(=O)OC)cc1`, the T/C (dose: 50.0 mg/kg/injection, schedule: Q04DX003 (ip), vehicle: saline sonified) was 100 % of control, the T/C (dose: 100.0 mg/kg/injection, schedule: Q04DX003 (ip), vehicle: saline sonified) was 100 % of control and the T/C (dose: 200.0 mg/kg/injection, schedule: Q04DX003 (ip), vehicle: saline sonified) was 105 % of control.

In the case of `O=NN(CCCl)C(=O)NC1CC2CCC1C2` (configuration not stated), the T/C (dose: 33.0 mg/kg/injection, schedule: Q04DX003 (ip), vehicle: saline with Tween-80) is reported as 272 % of control and the T/C (dose: 75.0 mg/kg/injection, schedule: Q04DX003 (ip), vehicle: saline with Tween-80) is reported as 113 % of control.

With `C=C1C(=O)OC2C1C(OC(=O)/C(C)=C/CO)C/C(C)=C/CCC1(CO)OC21` (configuration not stated) the T/C [1] was 97 % of control, the T/C [2] was 94 % of control and the T/C [4] was 101 % of control. The T/C [6] was 100 % of control.

For `O=C(O)c1ccccc1C(=O)Nc1ccc([N+](=O)[O-])cc1Cl`, the T/C [15] was 100 % of control, the T/C [16] was 100 % of control and the T/C [17] was 95 % of control.

In the case of `NNC(=O)CCc1ccccc1Br`, the T/C [11] is reported as 100 % of control and the T/C [7] is reported as 100 % of control.

With `COc1cccc2c1C(=O)c1c(O)c3c(c(O)c1C2=O)C[C@@](O)(/C(C)=N\NC=O)C[C@@H]3OC1CC(N)C(O)C(C)O1` (some centres not stated) the T/C [3] was 96 % of control, the T/C [5] was 107 % of control and the T/C (dose: 16.0 mg/kg/injection, schedule: Q01DX009 (ip), vehicle: saline) was 180 % of control.

In the case of `Cc1ccccc1P(=O)(c1ccccc1)c1ccccc1C`, the T/C [11] is reported as 90 % of control, the T/C [7] is reported as 96 % of control and the T/C [8] is reported as 87 % of control.
